{"source": "patent US20220324835A1", "about": "(Nurix Therapeutics, Inc., priority 2018, published 2022)", "key": {"Cbl-b [1]": {"target": "T1, Cbl-b (Homo sapiens, UniProt Q13191)", "T1 sequence (Q13191 36-427)": "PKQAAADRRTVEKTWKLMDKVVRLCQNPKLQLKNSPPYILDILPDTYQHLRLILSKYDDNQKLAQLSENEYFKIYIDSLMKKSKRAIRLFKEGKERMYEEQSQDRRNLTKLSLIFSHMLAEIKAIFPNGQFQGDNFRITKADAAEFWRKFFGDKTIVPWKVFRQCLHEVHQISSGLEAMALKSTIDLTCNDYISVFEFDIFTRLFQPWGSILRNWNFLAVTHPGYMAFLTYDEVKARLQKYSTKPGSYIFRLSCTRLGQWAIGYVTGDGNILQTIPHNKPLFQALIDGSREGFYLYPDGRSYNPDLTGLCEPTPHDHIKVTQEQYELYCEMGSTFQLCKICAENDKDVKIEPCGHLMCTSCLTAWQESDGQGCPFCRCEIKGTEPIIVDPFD", "assay": "Cbl-b inhibition assay (Cbl-b activity assay, FRET, Biological Example 1; 100 mM NaCl, 60 nM Src kinase)", "format": "biochemical", "conditions": "upper bound stated in text lists; read-out: IC50 values in the Cbl-b inhibition assay of Biological Example 1", "how_it_was_run": "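Here, the E2 UbcH5B, irreversibly linked to Bodipy-fluorescein ubiquitin, binds Cbl-b once Src kinase phosphorylates it; Cbl-b carries an N-terminal biotinylated Avi-tag captured by streptavidin-terbium. An absent FRET signal indicates inhibition.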"}, "Cbl-b [2]": {"target": "T1, Cbl-b", "assay": "Cbl-b activity assay (Cbl-b inhibition assay), TR-FRET of Cbl-b interaction with UbcH5B-Ub", "format": "biochemical", "conditions": "assay buffer with 100 mM NaCl, 60 nM Src kinase; read-out: Cbl-b activity IC50", "how_it_was_run": "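UbcH5B (C85K) conjugated to N-terminally Bodipy-Fluorescein-labeled ubiquitin served as the fluorescent partner. After compound preincubation, Src kinase (60 nM) with 1 mM ATP and 5 mM MgCl2 (final) was added for 1.5 h, followed by a further 1 h incubation. Some values were obtained with 50 mM NaCl and 30 nM Src.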"}, "T-cells": {"tested_on": "T-cells", "assay": "In vivo activity: CD25 expression on CD4+ or CD8+ T-cells of mice stimulated with anti-CD3 antibody", "conditions": "2 μg anti-CD3 antibody, 24 hours", "description": "(§1) A method of determining the pharmacodynamic profile of Cbl-b inhibitors was performed by dosing strains of mice with competent immune systems such as C57BL/6 or BALB/c with a Cbl-b inhibitor. The Cbl-b inhibitor was dissolved in a suitable formulation and administered by one of various routes such as intravenous (IV), intraperitoneal (IP), subcutaneous (SC), or oral (PO), at a suitable dose level and frequency (e.g. twice per day BID or thrice per day TID) as informed by prior pharmacokinetic and tolerability studies. Following administration of the Cbl-b inhibitor, T-cells and indirectly other immune cells (e.g. via cytokine production) were stimulated in vivo by administration of an anti-CD3 antibody or antigen-binding fragment thereof in PBS at defined amounts such as 2 μg or 10 μg per animal by routes such as IV or IP (See Hirsh et al., J. Immunol., 1989; Ferran, et al., Eur. J. Immunol., 1990). Additional study control arms included groups of mice treated with a vehicle formulation alone (i.e., formulation without the Cbl-b inhibitor and anti-CD3 antibody), a formulation containing the Cbl-b inhibitor alone, a formulation containing the anti-CD3 antibody alone, PBS alone, or combinations of these agents. The level of immune activation was then assessed by analysis of plasma cytokine levels and/or expression of activation markers on immune cells (e.g. T-cells). Blood or lymphoid organs (e.g. spleen) were collected at defined time points (e.g. 8 hours or 24 hours). Blood samples were processed to collect plasma for determination of cytokine levels using standard methods known in the art. Cytokines measured included IL-2, IFNγ, and TNFα. Additional blood samples and lymphoid tissues were processed for flow cytometric analysis of immune cells (e.g. T-cells) using standard methods to determine expression of cell type-specific markers and activation markers such as CD25 and/or CD69. Augmentation of immune stimulation by Cbl-b inhibitor administration was assessed by comparing the relative concentrations of cytokines in plasma, or the expression levels of activation markers on immune cells between appropriate groups (e.g. mice treated with Cbl-b inhibitor and 2 μg anti-CD3 antibody versus mice treated with vehicle and 2 μg anti-CD3 antibody).\n(§2) Cbl-b inhibitors were tested to determine their ability to induce or enhance the level of cytokines (e.g. IL-2, IFNγ, and TNFα) in blood obtained from treated mice stimulated with an anti-CD3 antibody, which is indicative of modulation of the immune response. Cbl-b inhibitors were also tested to determine their ability to induce or enhance the expression of cell surface markers on T-cells (e.g. CD25 and/or CD69) isolated from treated mice stimulated with an anti-CD3 antibody, which is indicative of modulation of the immune response.\n(§3) Readouts were reported as fold change over baseline. The fold change was calculated from the mean value of mice treated with Cbl-b inhibitor and 2 μg anti-CD3 antibody, with the baseline defined as the mean value of mice treated with vehicle and 2 μg anti-CD3 antibody. Increases in the percentage of cells with surface expression of CD25 on CD4+ T-cells or CD8+ T-cells greater than 1.5-fold over baseline at 24 hours were considered a positive response. Increases in the plasma concentration of IL-2, IFNγ, and TNFα greater than 1.5-fold over baseline at 8 hours post-stimulation were also considered a positive response (Table 8). Fold changes were ranked into bins according to their readouts as follows: A indicates >2.50, B indicates 2.01-2.50, C indicates 1.51-2.00, D indicates 1.00-1.50, and E indicates <1.00."}, "[3]": {"tested_on": "IL-2, IFNγ, and TNFα in plasma", "assay": "In vivo activity: plasma cytokine levels (IL-2, IFNγ, TNFα) in mice stimulated with anti-CD3 antibody", "conditions": "2 μg anti-CD3 antibody, 8 hours post-stimulation", "description": "as §1, §2, §3"}, "primary human B cells": {"tested_on": "primary human B cells", "assay": "B cell activation assay (CD69 on anti-IgM stimulated B cells)", "format": "cell-based", "conditions": "AUC of dose response curve (10 μM to 1 nM) of CD69 MFI normalized to DMSO control", "description": "Peripheral blood mononuclear cells (PBMC) were obtained either: 1) by using Ficoll-Paque™ (GE Healthcare) for separation of peripheral blood hematopoietic cells from buffy coats of healthy human donors; or 2) directly from LeukoPak donations. Human primary B cells were isolated from the PBMCs utilizing negative selection with commercial kits following the manufacturer's protocol (StemCells Catalog #17954) to yield >95% CD20+ cells assessed by flow cytometry. Primary human B cells were plated at 0.7-1×10^5 per well in a 96-well plate with Cbl-b inhibitors over a dose ranging from 10 μM to 1 nM and incubated at 37° C. 5% CO2, with a final DMSO concentration of <0.5%. Cells were stimulated with anti-IgM for 20 hours at 37° C. 5% CO2. Surface activation markers on mature CD20^+ IgD^+ B cells were monitored by FACS using an anti-CD69 antibody (BD Biosciences).\nCbl-b inhibitors were tested to determine their ability to induce or enhance surface expression of cell surface markers on B cells (e.g., CD69), which is indicative of B cell activation.\nReadouts were reported as area under curve (AUC) of the dose response curve of CD69 mean fluorescence intensity (MFI) normalized to the DMSO control. Baseline for this study was the measurement obtained from primary human B cells treated with DMSO in the presence of 2.5 μg/mL of anti-IgM-F(ab′)2. […] Compounds were ranked into bins according to their readouts as follows: A indicates ≤0.5, B indicates 0.5-1.00, C indicates 1.01-1.50, and D indicates ≥1.51."}, "Cbl-b (residues 36-427)": {"target": "Cbl-b (residues 36-427) (Homo sapiens, UniProt Q13191)", "sequence (Q13191 36-427)": "as above", "assay": "Cbl-b binding assay (SPR, Biacore T200)", "conditions": "20° C., 1:1 binding model", "how_it_was_run": "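Steps: capture protein on NeutrAvidin surface; inject compound dilutions (8 or 10 points from 100 or 50 μM) 50 s; allow 90-180 s dissociation; regenerate 20 s with 0.3 M NaCl. Runs at 20° C in HEPES pH 7.5/100 mM NaCl/2% DMSO; 1:1 fitting.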"}}}
{"smiles": "Cn1cnnc1CC1(c2cccc(N3Cc4c(cc(CN5CCC(F)CC5)cc4C(F)(F)F)C3=O)c2)COC1", "note": "[Compound 489, 6-[(4-fluoropiperidin-1-yl)methyl]-2-(3-{3-[(4-methyl-1,2,4-triazol-3-yl)methyl]oxetan-3-yl}phenyl)-4-(trifluoromethyl)-3H-isoindol-1-one]", "values": [{"measurement": "IC50", "setting": "Cbl-b [1]", "value": "≤ 0.1", "unit": "µM"}, {"measurement": "IC50", "setting": "Cbl-b [2]", "value": "< 0.1", "unit": "µM"}, {"measurement": "CD4+ T-cell % CD25+", "setting": "T-cells; 135 mpk PO BID", "value": "C (C indicates 1.51-2.00)"}, {"measurement": "CD8+ T-cell % CD25+", "setting": "T-cells; 135 mpk PO BID", "value": "D (D indicates 1.00-1.50)"}]}
{"smiles": "C[C@H](c1cc2c(c(C(F)(F)F)c1)CN(c1cccc(C3(Cc4nncn4C)COC3)c1)C2=O)N1CCC(F)CC1", "note": "[Example 622b, (R)-6-(1-(4-fluoropiperidin-1-yl)ethyl)-2-(3-(3-((4-methyl-4H-1,2,4-triazol-3-yl)methyl)oxetan-3-yl)phenyl)-4-(trifluoromethyl)isoindolin-1-one]", "values": [{"measurement": "CD4+ T-cell % CD25+", "setting": "T-cells; 135 mpk PO BID", "value": "B (B indicates 2.01-2.50)"}, {"measurement": "CD8+ T-cell % CD25+", "setting": "T-cells; 135 mpk PO BID", "value": "D (D indicates 1.00-1.50)"}]}
{"smiles": "C[C@@H](c1cc2c(c(C(F)(F)F)c1)CN(c1cccc(C3(Cc4nncn4C)COC3)c1)C2=O)N1CCC(F)CC1", "note": "[Example 622a, (S)-6-(1-(4-fluoropiperidin-1-yl)ethyl)-2-(3-(3-((4-methyl-4H-1,2,4-triazol-3-yl)methyl)oxetan-3-yl)phenyl)-4-(trifluoromethyl)isoindolin-1-one]", "values": [{"measurement": "CD4+ T-cell % CD25+", "setting": "T-cells; 135 mpk PO BID", "value": "B (B indicates 2.01-2.50)"}, {"measurement": "CD8+ T-cell % CD25+", "setting": "T-cells; 135 mpk PO BID", "value": "D (D indicates 1.00-1.50)"}]}
{"smiles": "C[C@@H](Sc1nncn1C)c1cccc(NC(=O)c2cccc(C(F)(F)F)n2)c1", "note": "[Compound 57b, (R)-N-(3-(1-((4-methyl-4H-1,2,4-triazol-3-yl)thio)ethyl)phenyl)-6-(trifluoromethyl)picolinamide]", "values": [{"measurement": "CD4+ T-cell % CD25+", "setting": "T-cells; 90 mpk IP BID", "value": "C (C indicates 1.51-2.00)"}, {"measurement": "CD8+ T-cell % CD25+", "setting": "T-cells; 90 mpk IP BID", "value": "E (E indicates <1.00)"}, {"measurement": "CD4+ T-cell % CD25+", "setting": "T-cells; 90 mpk IP TID", "value": "E (E indicates <1.00)"}, {"measurement": "CD8+ T-cell % CD25+", "setting": "T-cells; 90 mpk IP TID", "value": "D (D indicates 1.00-1.50)"}, {"measurement": "IFNγ plasma concentration", "setting": "[3]; 90 mpk IP BID", "value": "E (E indicates <1.00)"}, {"measurement": "IL-2 plasma concentration", "setting": "[3]; 90 mpk IP BID", "value": "E (E indicates <1.00)"}, {"measurement": "TNFα plasma concentration", "setting": "[3]; 90 mpk IP BID", "value": "D (D indicates 1.00-1.50)"}, {"measurement": "IFNγ plasma concentration", "setting": "[3]; 90 mpk IP TID", "value": "E (E indicates <1.00)"}, {"measurement": "IL-2 plasma concentration", "setting": "[3]; 90 mpk IP TID", "value": "E (E indicates <1.00)"}, {"measurement": "TNFα plasma concentration", "setting": "[3]; 90 mpk IP TID", "value": "E (E indicates <1.00)"}, {"measurement": "CD69 MFI AUC", "setting": "primary human B cells", "value": "A (A indicates ≤0.5)"}]}
{"smiles": "C[C@@H](Cc1nncn1C)c1cccc(N2Cc3c(cccc3C(F)(F)F)C2=O)c1", "note": "[Compound 255b]", "values": [{"measurement": "IC50", "setting": "Cbl-b [1]", "value": "≤ 10", "unit": "µM"}, {"measurement": "IC50", "setting": "Cbl-b [2]", "value": "1 to 3", "unit": "µM"}, {"measurement": "Kd", "setting": "Cbl-b (residues 36-427)", "value": "3 to 10", "unit": "µM"}, {"measurement": "CD4+ T-cell % CD25+", "setting": "T-cells; 135 mpk PO BID", "value": "E (E indicates <1.00)"}, {"measurement": "CD8+ T-cell % CD25+", "setting": "T-cells; 135 mpk PO BID", "value": "E (E indicates <1.00)"}, {"measurement": "CD4+ T-cell % CD25+", "setting": "T-cells; 180 mpk PO BID", "value": "E (E indicates <1.00)"}, {"measurement": "CD8+ T-cell % CD25+", "setting": "T-cells; 180 mpk PO BID", "value": "E (E indicates <1.00)"}]}
{"smiles": "C[C@H](Sc1nncn1C)c1cccc(NC(=O)c2cccc(C(F)(F)F)n2)c1", "note": "[Compound 57a, (S)-N-(3-(1-((4-methyl-4H-1,2,4-triazol-3-yl)thio)ethyl)phenyl)-6-(trifluoromethyl)picolinamide]", "values": [{"measurement": "CD4+ T-cell % CD25+", "setting": "T-cells; 90 mpk IP BID", "value": "D (D indicates 1.00-1.50)"}, {"measurement": "CD8+ T-cell % CD25+", "setting": "T-cells; 90 mpk IP BID", "value": "E (E indicates <1.00)"}, {"measurement": "CD4+ T-cell % CD25+", "setting": "T-cells; 90 mpk IP TID", "value": "D (D indicates 1.00-1.50)"}, {"measurement": "CD8+ T-cell % CD25+", "setting": "T-cells; 90 mpk IP TID", "value": "C (C indicates 1.51-2.00)"}, {"measurement": "IFNγ plasma concentration", "setting": "[3]; 90 mpk IP BID", "value": "D (D indicates 1.00-1.50)"}, {"measurement": "IL-2 plasma concentration", "setting": "[3]; 90 mpk IP BID", "value": "A (A indicates >2.50)"}, {"measurement": "TNFα plasma concentration", "setting": "[3]; 90 mpk IP BID", "value": "A (A indicates >2.50)"}, {"measurement": "IFNγ plasma concentration", "setting": "[3]; 90 mpk IP TID", "value": "B (B indicates 2.01-2.50)"}, {"measurement": "IL-2 plasma concentration", "setting": "[3]; 90 mpk IP TID", "value": "A (A indicates >2.50)"}, {"measurement": "TNFα plasma concentration", "setting": "[3]; 90 mpk IP TID", "value": "A (A indicates >2.50)"}, {"measurement": "CD69 MFI AUC", "setting": "primary human B cells", "value": "B (B indicates 0.5-1.00)"}]}
